Measurements published in article PMC9995905, “Characteristics of antimicrobial peptide OaBac5mini and its bactericidal mechanism against Escherichia coli” (Frontiers in Veterinary Science, 2023).
Entries after “also recorded” stand apart in the source; their conditions may differ. Where no end group is shown, it is not given here.

Columns and labels:
[1] = system: Gram-positive bacteria and C. albicans; details: cited from earlier work
Text: (§1) Antimicrobial peptides (AMPs) are small molecular peptides in living organisms and serve as natural barriers against the invasion of pathogenic microorganisms ([5]). They are often referred to as cationic host defense peptides (HDPs) or cationic antimicrobial peptides (CAMPs) ([6]). Cathelicidins are one of the best characterized AMP families. Each cathelicidin includes an N-terminal signal domain, a cathelin-like domain, and an antimicrobial C-terminal domain ([7]). Among them, the proline-rich antibacterial peptides (PrAMPs) have been attracting the close attention of researchers due to thei ...

Gram-negative bacteria = details: cited from earlier work
Text: as §1

pepsin = target: T1, pepsin (Sus scrofa, UniProt P00791); assay: Digestive enzyme sensitivity (inhibition zone assay); type: in vitro ADME; details: 100 μg/ml pepsin in pH 2 sterile water, 37°C, 3 h; 50 μg/ml peptide; inhibition zone assay against E. coli ATCC 25922; repeated three times
T1 construct: purchased sigma, USA
Text: (§2) All experiments were repeated three times.

proteinase K = target: T2, proteinase K (Parengyodontium album, UniProt P06873); assay: as above; type: in vitro ADME; details: 100 μg/ml protease K, 37°C, 3 h; 50 μg/ml peptide; inhibition zone assay against E. coli ATCC 25922; repeated three times
T2 construct: purchased Solarbio, China
Text: as §2

E. coli O157:H7 = details: cited from earlier work
Experimental: Salt ions in serum are important factors affecting the antibacterial activity of AMPs in vivo because they can bind to the negatively charged groups of lipopolysaccharide (LPS), a monolayer molecule on the outer membrane of Gram-negative bacteria ([29]). […] But in the presence of physiological concentrations of CaCl2, the MIC of OaBac5mini increased four-fold and attained 100 μg/ml (Table 2). It has been reported that the ...

E. coli ATCC 25922 [2] = assay: Sensitivity to pH, temperature and repeated freeze-thawing (inhibition zone assay); type: physicochemical, Escherichia coli; details: 50 μg/ml, inhibition zone assay against E. coli ATCC 25922, repeated three times
Experimental: The sensitivities of OaBac5mini to different pH, temperature, digestive enzymes, and repeated freeze-thawing conditions were determined using the inhibition zone assay as previously described ([23]). For pH sensitivity, OaBac5mini was diluted with each solution whose pH was individually adjusted to 2, 3, 4, 5, 6, 7, 8, 9, 10, 11 with HCl or NaOH, and incubated for 2 h, followed by adjusting the pH to 7 to end the reaction. For temperature sensitivity, the diluted peptide was incubated at 30, 40, 50, 60, 70, 80, 90, and 100°C for 30 min. To determine the digestive enzymes sensitivity, OaBac5mini was incubated with 100 μg/ml pepsin (in pH 2 sterile water, sigma, USA), 5–100 μg/ml trypsin (in pH 6.8 KH2PO4 buffer, sigma, USA) and 100 μg/ml protease K (Solarbio, China) at 37°C for 3 h, respectively. To end the reaction after incubation, the pepsin buffer was adjusted to pH 8, the trypsin solution and protease K solution were incubated at 95°C for 10 min. For repeated freeze-thawing sensitivity, OaBac5mini was frozen and then thawed at room temperature 0–12 times. All the final concentrations of OaBac5mini in sensitivity tests were 50 μg/ml. All experiments were repeated three times.

E. coli ATCC 25922 ΔsbmA = details: two-fold broth microdilution, CLSI; three independent occasions; sbmA deletion mutant
Experimental: The method described by Datsenko and Wanner was used for chromosomal gene deletion ([20]). […] The PCR fragment (1,567 bp) was purified, digested with DpnI, repurified and transferred into E. coli ATCC 25922 by electroporation, in which the Red recombinase expression plasmid pKD46 was previously transformed and induced by L-arabinose. Transformants were selected on Luria-Bertani (LB) agar containing 50 μg/ml of kanamycin at 37°C. The inserted sequence was amplified from the kanamycin-resistant strains by using the primers SBMF: 5′-[…]-3′ and SBMR: 5′-[…]-3′ which is located outside of inactivated gene. The length of the PCR product of sbmA using the primers set SBMF and SBMR in E. coli ATCC 25922 is 1,404 bp. When sbmA is successfully inactivated, the PCR product (2,198 bp) was amplified and sequenced for the verification of the gene deletion.
MICs of OaBac5mini, amoxicillin, kanamycin, florfenicol and tetracycline were determined using the two-fold broth microdilution method according to the Clinical and Laboratory Standards Institute (CLSI) guidance ([21]). MIC values of the tested antibacterial agents were determined on three independent occasions. Escherichia coli ATCC 25922 was used as the quality control in all the susceptibility tests.

E. coli ATCC 25922 [3] = assay: Time-kill curve; type: cell-based, Escherichia coli; details: MH broth, 37°C, 5×10^5 CFU/ml, triplicate
Experimental: To investigate the time-kill effect of OaBac5mini against E. coli ATCC 25922, bacteria (5×10^5 CFU/ml) were cultured in fresh Mueller-Hinton (MH) broth (Yashi Organisms, China) with different concentrations of OaBac5mini (0, 50, 100, and 200 μg/ml) at 37°C with shaking at the speed of 220 rpm. Equal amounts (100 μl) of E. coli ATCC 25922 from each sample were withdrawn at 0, 2, 4, 6, 8, 10, 12, and 24 h, diluted with Luria-Bertani (LB) broth (Solarbio, China) and plated onto LB agar plates. Plates were placed at 37°C for 18 h for the CFU counts.

E. coli ATCC 25922 [4] = type: cell-based, Escherichia coli
E. coli ATCC 25922 [5] = assay: Integrity of the inner membrane (DiSC3(5)); type: cell-based, Escherichia coli; details: 25, 50, 100 and 200 μg/ml; 1 μM DiSC3(5); within 30 min; P < 0.05; n = 3
Experimental: If the membrane is depolarized or disrupted, DiSC3(5) is released into the aqueous medium and leads to increased fluorescence. The DiSC3(5) assay was conducted following the instruction of Sautrey et al. ([26]) with minor modifications. […] Fluorescence units were investigated immediately using INFINITE 200 PRO (Infinite® 2000, TECAN, Austria) at the excitation wavelength of 620 nm and emission wavelength of 670 nm for 30 min at 1 min intervals. Triple experiments were conducted with three individual clones of E. coli ATCC 25922.

T2 sequence (P06873 106-384): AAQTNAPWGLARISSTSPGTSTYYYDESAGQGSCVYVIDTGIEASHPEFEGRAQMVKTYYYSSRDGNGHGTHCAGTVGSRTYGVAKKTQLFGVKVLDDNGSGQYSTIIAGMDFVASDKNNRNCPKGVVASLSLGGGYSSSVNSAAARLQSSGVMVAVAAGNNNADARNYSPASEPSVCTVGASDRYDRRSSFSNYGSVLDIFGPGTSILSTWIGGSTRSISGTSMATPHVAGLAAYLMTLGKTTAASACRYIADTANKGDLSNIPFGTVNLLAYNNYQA
T1 sequence (P00791 60-385): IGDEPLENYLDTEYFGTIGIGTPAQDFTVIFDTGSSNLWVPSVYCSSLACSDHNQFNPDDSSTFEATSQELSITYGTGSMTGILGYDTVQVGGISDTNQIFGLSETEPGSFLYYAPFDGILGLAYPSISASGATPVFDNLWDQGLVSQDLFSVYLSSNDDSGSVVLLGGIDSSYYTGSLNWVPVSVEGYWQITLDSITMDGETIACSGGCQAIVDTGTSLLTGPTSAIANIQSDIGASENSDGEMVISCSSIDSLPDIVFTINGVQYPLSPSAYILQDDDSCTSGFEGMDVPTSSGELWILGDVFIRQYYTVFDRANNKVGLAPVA

Sequence: RFRPPIRRPPIRPPFRPPFRPPVR [OaBac5mini]
- MICs against Gram-positive bacteria and C. albicans [1]: 16 to 64 µg/mL
- MICs against Gram-negative bacteria (Gram-negative bacteria): 0.125 to 8 µg/mL
- Antibacterial activity after treatment with pepsin (pepsin): stable antibacterial activity; also recorded: not significantly affected
- Antibacterial activity after treatment with proteinase K (proteinase K): stable antibacterial activity; also recorded: no significant effect
- MIC against E. coli O157:H7 in the presence of 100 mM NaCl (E. coli O157:H7): about 30 μg/ml
- Antibacterial activity after treatment at high temperature (E. coli ATCC 25922 [2]; 30-100°C for 30 min): stable antibacterial activity
- Antibacterial activity after repeated freeze-thawing (E. coli ATCC 25922 [2]; frozen and thawed at room temperature 0-12 times): stable antibacterial activity
- Antibacterial activity after treatment at different pH (E. coli ATCC 25922 [2]; pH 2-11 (HCl or NaOH), 2 h, then adjusted to pH 7): stable antibacterial activity; also recorded: not significantly affected
- MIC against E. coli ATCC 25922 ΔsbmA (E. coli ATCC 25922 ΔsbmA): 100 µg/mL
- Time-kill effect at 50 μg/ml (2 × MIC) (E. coli ATCC 25922 [3]; 50 μg/ml, 24 h): the number of bacteria remained stable in the first co-incubation for 8h before it increased
- Time-kill effect at 100 μg/ml (E. coli ATCC 25922 [3]; 100 μg/ml, 24 h): decrease after co-incubation for 12 h and increase in further co-incubation for 12 h
- Time-kill effect at 200 μg/ml (8 × MIC) (E. coli ATCC 25922 [3]; 200 μg/ml, co-incubation for 12 h): could effectively kill; also recorded: effectively killed
- Increase of MIC in the presence of physiological concentration of CaCl2 (E. coli ATCC 25922 [4]; 2.5 mM CaCl2 versus MH broth alone, E. coli ATCC 25922): four-fold
- MIC against E. coli ATCC 25922 in MH broth (E. coli ATCC 25922 [4]; ATCC 25922): 25 µg/mL
- MIC against E. coli ATCC 25922 in MH broth + CaCl2 (E. coli ATCC 25922 [4]; ATCC 25922): 100 µg/mL
- MIC against E. coli ATCC 25922 in MH broth + FeCl3 (E. coli ATCC 25922 [4]; ATCC 25922): 16.67 µg/mL
- MIC against E. coli ATCC 25922 in MH broth + KCl (E. coli ATCC 25922 [4]; ATCC 25922): 20.83 µg/mL
- MIC against E. coli ATCC 25922 in MH broth + MgCl2 (E. coli ATCC 25922 [4]; ATCC 25922): 50 µg/mL
- MIC against E. coli ATCC 25922 in MH broth + NH4Cl (E. coli ATCC 25922 [4]; ATCC 25922): 12.5 µg/mL
- MIC against E. coli ATCC 25922 in MH broth + NaCl (E. coli ATCC 25922 [4]; ATCC 25922): 33.33 µg/mL
- Average fluorescence intensity of DiSC3(5) (inner membrane integrity) (E. coli ATCC 25922 [5]): significantly increased
